± gives the standard deviation of the averaged measurements.
Tests used:
TIOGUANINE [1] = compound: T1, Nc1nc2[nH]cnc2c(=S)[nH]1 [TIOGUANINE]; test: surviving fraction relative to DMSO-only wells; higher = less growth inhibition; conditions: exposure time: 5 days
In short: (§1)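 Tumour cell lines in log phase were plated in 384-well plates at 250–500 cells per well, then, after 24 hours, exposed continuously for five days to inhibitors at 0.5, 1, 5, 10, 50, 100, 500 and 1000 nM. Viability came from CellTiter-Glo luminescence, and surviving fraction is that signal normalised to the median of DMSO-only wells. Plates were read after 10 minutes at room temperature, and each line, screened three times, was kept only when replicate Pearson r was >0.7 and median Z' was >0.3.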

SAPACITABINE [2] = compound: T2, CCCCCCCCCCCCCCCC(=O)Nc1ccn([C@@H]2O[C@H](CO)[C@@H](O)[C@@H]2C#N)c(=O)n1 [SAPACITABINE]; test: as above; conditions: exposure time: 5 days
In short: as §1

BI-2536 [3] = compound: T3, CC[C@@H]1C(=O)N(C)c2cnc(Nc3ccc(C(=O)NC4CCN(C)CC4)cc3OC)nc2N1C1CCCC1 [BI-2536]; test: as above; conditions: exposure time: 5 days
In short: as §1

AFATINIB [4] = compound: T4, CN(C)C/C=C/C(=O)Nc1cc2c(Nc3ccc(F)c(Cl)c3)ncnc2cc1O[C@H]1CCOC1 [AFATINIB]; test: as above; conditions: exposure time: 5 days
In short: as §1

SNX-5422 [5] = compound: T5, CC1(C)CC(=O)c2c(C(F)(F)F)nn(-c3ccc(C(N)=O)c(N[C@H]4CC[C@H](OC(=O)CN)CC4)c3)c2C1 [SNX-5422]; test: as above; conditions: exposure time: 5 days
In short: as §1

CANERTINIB [6] = compound: T6, C=CC(=O)Nc1cc2c(Nc3ccc(F)c(Cl)c3)ncnc2cc1OCCCN1CCOCC1 [CANERTINIB]; test: as above; conditions: exposure time: 5 days
In short: as §1

[7] = compound: Cn1cc(C2=Nc3cc(NC(=O)C(N)C4CCCCC4)cc4c3C2=CNNC4=O)cn1; test: as above; conditions: exposure time: 5 days
In short: as §1

MDV3100 [8] = compound: T7, CNC(=O)c1ccc(N2C(=S)N(c3ccc(C#N)c(C(F)(F)F)c3)C(=O)C2(C)C)cc1F [MDV3100]; test: as above; conditions: exposure time: 5 days
In short: as §1

TIOGUANINE [9] = compound: T1, TIOGUANINE; test: area under dose-response curve of surviving fraction (unscaled, Aref=0) (surviving fraction x log10(nM)); higher = more resistant; conditions: exposure time: 5 days; dose range 0.5-1000 nM
In short: (§2)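 Each tumour cell line was screened three times in 384-well plates, receiving eight inhibitor concentrations from 0.5 to 1000 nM for five days. CellTiter-Glo luminescence gave viability, normalised to DMSO-only wells. Using the drc R package, surviving fractions were fitted with 3-parameter logistic dose-response curves, and the unscaled activity area over log10 dose (Aref = 0) was taken as the area under the curve.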

SAPACITABINE [10] = compound: T2, SAPACITABINE; test: as above; conditions: exposure time: 5 days; dose range 0.5-1000 nM
In short: as §2

BI-2536 [11] = compound: T3, BI-2536; test: as above; conditions: exposure time: 5 days; dose range 0.5-1000 nM
In short: as §2

AFATINIB [12] = compound: T4, AFATINIB; test: as above; conditions: exposure time: 5 days; dose range 0.5-1000 nM
In short: as §2

SNX-5422 [13] = compound: T5, SNX-5422; test: as above; conditions: exposure time: 5 days; dose range 0.5-1000 nM
In short: as §2

CANERTINIB [14] = compound: T6, CANERTINIB; test: as above; conditions: exposure time: 5 days; dose range 0.5-1000 nM
In short: as §2

[15] = compound: Cn1cc(C2=Nc3cc(NC(=O)C(N)C4CCCCC4)cc4c3C2=CNNC4=O)cn1; test: as above; conditions: exposure time: 5 days; dose range 0.5-1000 nM
In short: as §2

MDV3100 [16] = compound: T7, MDV3100; test: as above; conditions: exposure time: 5 days; dose range 0.5-1000 nM
In short: as §2

KPD BONE
surviving fraction (TIOGUANINE [1]; 0.5 nM): 0.998 ± 0.045
surviving fraction (TIOGUANINE [1]; 1 nM): 0.985 ± 0.098
surviving fraction (TIOGUANINE [1]; 5 nM): 0.989 ± 0.049
surviving fraction (TIOGUANINE [1]; 10 nM): 1 ± 0.047
surviving fraction (TIOGUANINE [1]; 50 nM): 1.03 ± 0.084
surviving fraction (TIOGUANINE [1]; 100 nM): 1.05 ± 0.027
surviving fraction (TIOGUANINE [1]; 500 nM): 1.03 ± 0.019
surviving fraction (TIOGUANINE [1]; 1000 nM): 0.993 ± 0.059
surviving fraction (SAPACITABINE [2]; 0.5 nM): 0.887 ± 0.013
surviving fraction (SAPACITABINE [2]; 1 nM): 0.886 ± 0.043
surviving fraction (SAPACITABINE [2]; 5 nM): 0.977 ± 0.045
surviving fraction (SAPACITABINE [2]; 10 nM): 0.946 ± 0.1
surviving fraction (SAPACITABINE [2]; 50 nM): 0.926 ± 0.024
surviving fraction (SAPACITABINE [2]; 100 nM): 0.815 ± 0.013
surviving fraction (SAPACITABINE [2]; 500 nM): 0.52 ± 0.028
surviving fraction (SAPACITABINE [2]; 1000 nM): 0.344 ± 0.017
surviving fraction (BI-2536 [3]; 0.5 nM): 0.919 ± 0.06
surviving fraction (BI-2536 [3]; 1 nM): 0.925 ± 0.022
surviving fraction (BI-2536 [3]; 5 nM): 0.79 ± 0.024
surviving fraction (BI-2536 [3]; 10 nM): 0.482 ± 0.016
surviving fraction (BI-2536 [3]; 50 nM): 0.205 ± 0.012
surviving fraction (BI-2536 [3]; 100 nM): 0.197 ± 0.011
surviving fraction (BI-2536 [3]; 500 nM): 0.113 ± 0.0035
surviving fraction (BI-2536 [3]; 1000 nM): 0.0597 ± 0.0038
surviving fraction (AFATINIB [4]; 0.5 nM): 0.964 ± 0.051
surviving fraction (AFATINIB [4]; 1 nM): 0.978 ± 0.045
surviving fraction (AFATINIB [4]; 5 nM): 1.04 ± 0.066
surviving fraction (AFATINIB [4]; 10 nM): 0.976 ± 0.051
surviving fraction (AFATINIB [4]; 50 nM): 1.08 ± 0.06
surviving fraction (AFATINIB [4]; 100 nM): 0.888 ± 0.034
surviving fraction (AFATINIB [4]; 500 nM): 0.65 ± 0.056
surviving fraction (AFATINIB [4]; 1000 nM): 0.354 ± 0.014
surviving fraction (SNX-5422 [5]; 0.5 nM): 1 ± 0.015
surviving fraction (SNX-5422 [5]; 1 nM): 1.03 ± 0.07
surviving fraction (SNX-5422 [5]; 5 nM): 1.02 ± 0.054
surviving fraction (SNX-5422 [5]; 10 nM): 0.954 ± 0.026
surviving fraction (SNX-5422 [5]; 50 nM): 0.265 ± 0.0056
surviving fraction (SNX-5422 [5]; 100 nM): 0.109 ± 0.004
surviving fraction (SNX-5422 [5]; 500 nM): 0.0673 ± 0.0015
surviving fraction (SNX-5422 [5]; 1000 nM): 0.0643 ± 0.0067
surviving fraction (CANERTINIB [6]; 0.5 nM): 0.943 ± 0.043
surviving fraction (CANERTINIB [6]; 1 nM): 0.947 ± 0.076
surviving fraction (CANERTINIB [6]; 5 nM): 0.962 ± 0.026
surviving fraction (CANERTINIB [6]; 10 nM): 0.929 ± 0.023
surviving fraction (CANERTINIB [6]; 50 nM): 0.917 ± 0.068
surviving fraction (CANERTINIB [6]; 100 nM): 0.922 ± 0.04
surviving fraction (CANERTINIB [6]; 500 nM): 0.776 ± 0.048
surviving fraction (CANERTINIB [6]; 1000 nM): 0.497 ± 0.047
surviving fraction ([7]; 0.5 nM): 0.953 ± 0.041
surviving fraction ([7]; 1 nM): 0.891 ± 0.018
surviving fraction ([7]; 5 nM): 1.19 ± 0.24
surviving fraction ([7]; 10 nM): 0.977 ± 0.026
surviving fraction ([7]; 50 nM): 0.84 ± 0.028
surviving fraction ([7]; 100 nM): 0.389 ± 0.021
surviving fraction ([7]; 500 nM): 0.0873 ± 0.0023
surviving fraction ([7]; 1000 nM): 0.0763 ± 0.008
surviving fraction (MDV3100 [8]; 0.5 nM): 0.955 ± 0.071
surviving fraction (MDV3100 [8]; 1 nM): 0.975 ± 0.023
surviving fraction (MDV3100 [8]; 5 nM): 0.997 ± 0.048
surviving fraction (MDV3100 [8]; 10 nM): 0.985 ± 0.044
surviving fraction (MDV3100 [8]; 50 nM): 1.04 ± 0.058
surviving fraction (MDV3100 [8]; 100 nM): 1.04 ± 0.067
surviving fraction (MDV3100 [8]; 500 nM): 0.977 ± 0.19
surviving fraction (MDV3100 [8]; 1000 nM): 0.938 ± 0.015
area under dose-response curve (TIOGUANINE [9]): 3.35
area under dose-response curve (SAPACITABINE [10]): 2.81
area under dose-response curve (BI-2536 [11]): 1.5
area under dose-response curve (AFATINIB [12]): 3.02
area under dose-response curve (SNX-5422 [13]): 1.89
area under dose-response curve (CANERTINIB [14]): 3.06
area under dose-response curve [15]: 2.3
area under dose-response curve (MDV3100 [16]): 3.28
